Measured values taken from ChEMBL document CHEMBL3991601, “The target landscape of clinical kinase drugs” (Science, 2017).
Where a name gives a salt, the structure may show the parent alone. Calls of active or inactive are those of the source. For most assays here, no stated cut-off is given here; in the data, actives have a measured Kd and inactives only a lower limit.

Legend:
[1] = target: Bone morphogenetic protein receptor type-1B (Homo sapiens, UniProt O00238)
[2] = target: Serine/threonine-protein kinase MRCK alpha (Homo sapiens, UniProt Q5VT25)
Chain of Serine/threonine-protein kinase MRCK alpha (Q5VT25 whole entry): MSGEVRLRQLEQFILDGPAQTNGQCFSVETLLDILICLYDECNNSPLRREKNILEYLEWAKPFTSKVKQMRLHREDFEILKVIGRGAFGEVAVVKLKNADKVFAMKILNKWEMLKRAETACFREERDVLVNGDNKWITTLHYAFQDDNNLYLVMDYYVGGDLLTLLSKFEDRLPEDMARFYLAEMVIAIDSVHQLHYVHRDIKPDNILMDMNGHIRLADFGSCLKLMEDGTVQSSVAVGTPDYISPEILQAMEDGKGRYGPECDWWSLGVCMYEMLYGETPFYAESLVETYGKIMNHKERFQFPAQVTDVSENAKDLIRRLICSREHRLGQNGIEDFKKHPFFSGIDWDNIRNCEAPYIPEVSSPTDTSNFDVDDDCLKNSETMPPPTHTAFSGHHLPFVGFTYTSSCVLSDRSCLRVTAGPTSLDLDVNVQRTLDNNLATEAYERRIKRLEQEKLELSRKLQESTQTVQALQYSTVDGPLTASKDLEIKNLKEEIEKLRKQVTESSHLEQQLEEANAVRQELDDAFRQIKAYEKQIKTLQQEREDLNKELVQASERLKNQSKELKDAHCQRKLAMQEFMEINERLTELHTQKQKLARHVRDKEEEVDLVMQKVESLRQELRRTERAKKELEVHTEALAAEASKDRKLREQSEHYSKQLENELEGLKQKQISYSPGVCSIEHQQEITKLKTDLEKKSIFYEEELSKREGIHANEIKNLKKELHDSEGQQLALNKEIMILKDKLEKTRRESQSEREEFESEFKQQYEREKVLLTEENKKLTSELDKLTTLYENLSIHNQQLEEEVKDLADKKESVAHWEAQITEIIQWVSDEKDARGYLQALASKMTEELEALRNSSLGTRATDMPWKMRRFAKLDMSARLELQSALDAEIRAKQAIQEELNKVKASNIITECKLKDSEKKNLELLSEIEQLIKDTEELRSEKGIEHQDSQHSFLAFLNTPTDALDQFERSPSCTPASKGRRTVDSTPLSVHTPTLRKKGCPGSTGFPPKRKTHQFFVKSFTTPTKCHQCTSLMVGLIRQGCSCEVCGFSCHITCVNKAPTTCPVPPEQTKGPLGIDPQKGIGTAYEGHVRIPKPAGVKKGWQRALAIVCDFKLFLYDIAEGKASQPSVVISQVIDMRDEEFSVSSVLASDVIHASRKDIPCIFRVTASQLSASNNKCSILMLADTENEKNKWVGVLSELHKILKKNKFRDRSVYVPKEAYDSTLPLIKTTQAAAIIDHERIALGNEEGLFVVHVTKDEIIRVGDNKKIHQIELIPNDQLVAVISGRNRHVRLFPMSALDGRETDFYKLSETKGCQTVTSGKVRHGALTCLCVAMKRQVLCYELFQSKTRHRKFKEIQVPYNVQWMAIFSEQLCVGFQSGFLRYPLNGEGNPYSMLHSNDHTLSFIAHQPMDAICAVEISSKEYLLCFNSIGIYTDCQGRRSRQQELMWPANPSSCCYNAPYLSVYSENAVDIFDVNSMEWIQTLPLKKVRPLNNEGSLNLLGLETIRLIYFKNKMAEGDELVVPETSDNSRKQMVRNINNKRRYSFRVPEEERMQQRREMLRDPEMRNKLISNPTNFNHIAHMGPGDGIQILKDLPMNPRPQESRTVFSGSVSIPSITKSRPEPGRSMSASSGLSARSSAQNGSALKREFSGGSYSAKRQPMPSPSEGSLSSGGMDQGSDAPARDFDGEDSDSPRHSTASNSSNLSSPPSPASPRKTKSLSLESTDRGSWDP

[3] = target: T1, Inhibitor of nuclear factor kappa-B kinase subunit epsilon (Homo sapiens, UniProt Q14164)
T1 sequence (Q14164 whole entry): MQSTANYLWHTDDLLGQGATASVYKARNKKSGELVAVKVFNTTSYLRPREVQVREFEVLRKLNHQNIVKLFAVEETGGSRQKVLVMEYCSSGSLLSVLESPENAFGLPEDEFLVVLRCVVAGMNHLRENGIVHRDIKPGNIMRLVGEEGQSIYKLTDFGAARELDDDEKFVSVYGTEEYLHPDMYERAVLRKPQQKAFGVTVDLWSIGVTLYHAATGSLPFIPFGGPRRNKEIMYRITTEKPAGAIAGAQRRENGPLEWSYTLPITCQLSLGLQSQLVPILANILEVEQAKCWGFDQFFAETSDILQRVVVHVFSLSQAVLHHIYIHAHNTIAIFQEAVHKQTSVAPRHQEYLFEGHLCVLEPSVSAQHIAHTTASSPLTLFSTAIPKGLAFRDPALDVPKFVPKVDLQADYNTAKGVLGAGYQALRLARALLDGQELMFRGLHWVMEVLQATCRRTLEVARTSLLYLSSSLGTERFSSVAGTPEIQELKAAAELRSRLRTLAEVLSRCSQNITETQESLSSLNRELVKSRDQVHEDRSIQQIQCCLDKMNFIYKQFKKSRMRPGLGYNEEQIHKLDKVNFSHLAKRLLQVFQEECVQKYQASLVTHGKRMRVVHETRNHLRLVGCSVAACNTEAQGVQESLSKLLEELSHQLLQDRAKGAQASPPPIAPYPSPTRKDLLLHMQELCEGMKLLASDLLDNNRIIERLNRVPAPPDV

[4] = target: Dual specificity mitogen-activated protein kinase kinase 2 (Homo sapiens, UniProt P36507)
Chain of Dual specificity mitogen-activated protein kinase kinase 2 (P36507 whole entry): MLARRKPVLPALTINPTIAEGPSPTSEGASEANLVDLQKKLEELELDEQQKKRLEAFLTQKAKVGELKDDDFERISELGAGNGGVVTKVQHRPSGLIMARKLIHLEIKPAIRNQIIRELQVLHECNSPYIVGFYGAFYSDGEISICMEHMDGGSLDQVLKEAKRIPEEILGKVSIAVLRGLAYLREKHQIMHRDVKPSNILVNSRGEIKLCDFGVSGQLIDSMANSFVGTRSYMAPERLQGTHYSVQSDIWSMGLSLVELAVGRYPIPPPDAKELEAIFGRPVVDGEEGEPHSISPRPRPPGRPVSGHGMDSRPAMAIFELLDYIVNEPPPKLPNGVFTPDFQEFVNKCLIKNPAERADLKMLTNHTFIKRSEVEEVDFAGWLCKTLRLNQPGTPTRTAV

[5] = target: T2, Dynamin-like GTPase OPA1, mitochondrial (Homo sapiens, UniProt O60313)
T2 sequence (O60313 whole entry): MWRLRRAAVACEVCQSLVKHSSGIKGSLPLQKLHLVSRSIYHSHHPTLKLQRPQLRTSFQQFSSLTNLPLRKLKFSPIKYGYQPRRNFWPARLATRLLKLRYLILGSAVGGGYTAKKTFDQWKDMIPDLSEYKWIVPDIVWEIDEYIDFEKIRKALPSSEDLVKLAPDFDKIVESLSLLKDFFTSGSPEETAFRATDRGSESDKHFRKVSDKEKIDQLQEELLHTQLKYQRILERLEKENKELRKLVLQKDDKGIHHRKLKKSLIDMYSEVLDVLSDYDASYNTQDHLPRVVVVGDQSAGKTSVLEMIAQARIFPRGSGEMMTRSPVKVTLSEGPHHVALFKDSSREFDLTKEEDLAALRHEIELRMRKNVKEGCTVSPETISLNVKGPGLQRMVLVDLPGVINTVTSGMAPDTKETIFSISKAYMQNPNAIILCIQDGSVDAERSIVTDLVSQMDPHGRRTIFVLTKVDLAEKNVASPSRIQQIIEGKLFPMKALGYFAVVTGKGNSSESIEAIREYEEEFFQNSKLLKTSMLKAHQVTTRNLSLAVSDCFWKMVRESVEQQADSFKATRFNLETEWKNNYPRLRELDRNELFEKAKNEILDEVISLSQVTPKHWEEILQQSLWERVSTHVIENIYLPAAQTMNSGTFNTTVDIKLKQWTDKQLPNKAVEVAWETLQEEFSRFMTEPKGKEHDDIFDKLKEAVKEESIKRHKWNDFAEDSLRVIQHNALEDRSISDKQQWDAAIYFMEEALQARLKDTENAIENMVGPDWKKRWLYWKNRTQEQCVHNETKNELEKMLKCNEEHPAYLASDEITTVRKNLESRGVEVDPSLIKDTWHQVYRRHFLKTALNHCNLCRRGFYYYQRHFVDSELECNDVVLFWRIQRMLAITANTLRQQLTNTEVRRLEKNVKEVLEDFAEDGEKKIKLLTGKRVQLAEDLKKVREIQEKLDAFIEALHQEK

[6] = target: T3, Serine/threonine-protein kinase TAO1 (Homo sapiens, UniProt Q7L7X3)
T3 sequence (Q7L7X3 whole entry): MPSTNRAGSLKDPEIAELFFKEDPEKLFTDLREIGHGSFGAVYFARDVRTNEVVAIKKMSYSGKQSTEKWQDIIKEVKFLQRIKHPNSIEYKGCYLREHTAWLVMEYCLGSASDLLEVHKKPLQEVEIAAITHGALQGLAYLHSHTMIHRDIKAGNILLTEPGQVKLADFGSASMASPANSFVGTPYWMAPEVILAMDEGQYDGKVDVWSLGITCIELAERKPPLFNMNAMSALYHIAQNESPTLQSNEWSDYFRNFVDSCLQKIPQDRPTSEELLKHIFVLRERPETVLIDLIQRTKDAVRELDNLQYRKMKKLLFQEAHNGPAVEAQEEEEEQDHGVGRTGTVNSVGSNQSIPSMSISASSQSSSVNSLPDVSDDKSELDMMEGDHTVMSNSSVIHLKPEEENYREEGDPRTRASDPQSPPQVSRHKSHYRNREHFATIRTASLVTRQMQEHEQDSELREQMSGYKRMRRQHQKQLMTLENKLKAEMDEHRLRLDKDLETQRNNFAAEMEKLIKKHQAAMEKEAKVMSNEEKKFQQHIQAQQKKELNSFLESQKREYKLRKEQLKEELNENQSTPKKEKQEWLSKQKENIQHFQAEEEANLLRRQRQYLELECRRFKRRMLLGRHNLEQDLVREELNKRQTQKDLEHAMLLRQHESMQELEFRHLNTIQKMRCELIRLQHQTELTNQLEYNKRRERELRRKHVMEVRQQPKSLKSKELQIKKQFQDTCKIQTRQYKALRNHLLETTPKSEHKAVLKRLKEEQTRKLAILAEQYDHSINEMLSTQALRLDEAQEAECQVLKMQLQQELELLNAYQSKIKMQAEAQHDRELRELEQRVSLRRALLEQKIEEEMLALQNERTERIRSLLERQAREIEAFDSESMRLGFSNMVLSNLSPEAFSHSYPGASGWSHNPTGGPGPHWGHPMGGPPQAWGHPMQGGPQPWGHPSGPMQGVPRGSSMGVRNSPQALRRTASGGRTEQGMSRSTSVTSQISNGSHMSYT

Chain of Bone morphogenetic protein receptor type-1B (O00238 whole entry): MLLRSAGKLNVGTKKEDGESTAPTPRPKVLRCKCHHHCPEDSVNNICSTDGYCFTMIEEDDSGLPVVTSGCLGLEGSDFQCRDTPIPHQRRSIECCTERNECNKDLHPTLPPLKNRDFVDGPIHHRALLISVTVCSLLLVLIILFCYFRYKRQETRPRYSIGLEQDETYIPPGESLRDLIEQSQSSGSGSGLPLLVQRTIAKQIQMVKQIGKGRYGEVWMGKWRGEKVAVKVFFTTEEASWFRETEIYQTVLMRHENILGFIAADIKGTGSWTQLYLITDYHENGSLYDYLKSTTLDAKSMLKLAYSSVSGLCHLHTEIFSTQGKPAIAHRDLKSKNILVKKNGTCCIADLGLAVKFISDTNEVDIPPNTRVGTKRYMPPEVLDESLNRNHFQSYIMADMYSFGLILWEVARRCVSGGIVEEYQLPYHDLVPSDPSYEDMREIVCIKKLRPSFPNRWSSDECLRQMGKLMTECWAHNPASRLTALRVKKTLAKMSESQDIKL

Kd [1] | Kd [2] | Kd [3] | Kd [4] | Kd [5] | Kd [6] | Structure (SMILES)
0.021 µM (active) | > 30 µM (inactive) | 0.215 µM (active) | > 30 µM (inactive) | > 30 µM (inactive) | 2.22 µM (active) | O=C(Nc1c[nH]nc1-c1nc2cc(CN3CCOCC3)ccc2[nH]1)NC1CC1 [AT-9283]
> 30 µM (inactive) | > 30 µM (inactive) | > 30 µM (inactive) | > 30 µM (inactive) | > 30 µM (inactive) | > 30 µM (inactive) | C=CC(=O)Nc1cc2c(Nc3ccc(F)c(Cl)c3)ncnc2cc1C#CC(C)(C)N1CCN(C)CC1 [AV-412 FREE BASE]
> 30 µM (inactive) | > 30 µM (inactive) | > 30 µM (inactive) | 0.036 µM (active) | > 30 µM (inactive) | > 30 µM (inactive) | Cn1cnc2c(F)c(Nc3ccc(Br)cc3F)c(C(=O)NOCCO)cc21 [BINIMETINIB]
> 30 µM (inactive) | > 30 µM (inactive) | > 30 µM (inactive) | > 30 µM (inactive) | > 30 µM (inactive) | > 30 µM (inactive) | CCn1c(C(=O)N(C2CC2)C2CC2)cc2c3c(ncn3C)c(Nc3cc(C)n(C)n3)nc21 [BMS-911543]
> 30 µM (inactive) | > 30 µM (inactive) | > 30 µM (inactive) | > 30 µM (inactive) | > 30 µM (inactive) | > 30 µM (inactive) | COc1cc2ncnc(Oc3cccc(NC(=O)Nc4cc(C(C)(C)C(F)(F)F)on4)c3)c2cc1OC [CEP-32496]
> 30 µM (inactive) | > 30 µM (inactive) | > 30 µM (inactive) | > 30 µM (inactive) | > 30 µM (inactive) | > 30 µM (inactive) | Cc1cc(Nc2ncc(Cl)c(Nc3ccccc3S(=O)(=O)C(C)C)n2)c(OC(C)C)cc1C1CCNCC1 [CERITINIB]
> 30 µM (inactive) | > 30 µM (inactive) | > 30 µM (inactive) | > 30 µM (inactive) | > 30 µM (inactive) | > 30 µM (inactive) | COc1c(OCCCN2CCOCC2)ccc2c1N=C(NC(=O)c1cnc(N)nc1)N1CCN=C21 [COPANLISIB]
> 30 µM (inactive) | > 30 µM (inactive) | > 30 µM (inactive) | > 30 µM (inactive) | > 30 µM (inactive) | > 30 µM (inactive) | COCC(=O)NC/C=C/c1ccc2ncnc(Nc3ccc(Oc4ccc(C)nc4)c(C)c3)c2c1 [CP-724714]
> 30 µM (inactive) | > 30 µM (inactive) | > 30 µM (inactive) | > 30 µM (inactive) | > 30 µM (inactive) | > 30 µM (inactive) | C#Cc1cccc(Nc2ncnc3cc(OC)c(OCCCCCCC(=O)NO)cc23)c1 [CUDC-101]
> 30 µM (inactive) | > 30 µM (inactive) | 1.29 µM (active) | > 30 µM (inactive) | > 30 µM (inactive) | 2.17 µM (active) | CCS(=O)(=O)N1CCN(c2ccc(Nc3ncc(C(N)=O)c(NC4CC4)n3)cc2)CC1 [Cerdulatinib Hydrochloride]
> 30 µM (inactive) | > 30 µM (inactive) | > 30 µM (inactive) | > 30 µM (inactive) | > 30 µM (inactive) | > 30 µM (inactive) | Cc1nc2cc(-n3ncc(C(=O)c4cc5ccccc5[nH]4)c3N)ccc2[nH]1 [FGFR INHIBITOR DEBIO 1347]
> 30 µM (inactive) | > 30 µM (inactive) | > 30 µM (inactive) | > 30 µM (inactive) | > 30 µM (inactive) | > 30 µM (inactive) | Cc1cccc(-c2nn3c(c2-c2ccnc4ccc(C(N)=O)cc24)CCC3)n1 [GALUNISERTIB]
> 30 µM (inactive) | > 30 µM (inactive) | > 30 µM (inactive) | > 30 µM (inactive) | > 30 µM (inactive) | > 30 µM (inactive) | COc1ccc(S(=O)(=O)N(C(C)=O)c2ccccc2/C=C/c2cc[n+]([O-])cc2)cc1 [HMN-214]
> 30 µM (inactive) | > 30 µM (inactive) | > 30 µM (inactive) | > 30 µM (inactive) | > 30 µM (inactive) | > 30 µM (inactive) | CNC(=O)c1cccc2cc(Oc3ccnc4cc(OCC5(N)CC5)c(OC)cc34)ccc12 [LUCITANIB]
> 30 µM (inactive) | > 30 µM (inactive) | > 30 µM (inactive) | > 30 µM (inactive) | > 30 µM (inactive) | > 30 µM (inactive) | NC1(c2ccc(-c3nc4ccn5c(=O)[nH]nc5c4cc3-c3ccccc3)cc2)CCC1 [MK-2206]
> 30 µM (inactive) | > 30 µM (inactive) | > 30 µM (inactive) | > 30 µM (inactive) | > 30 µM (inactive) | > 30 µM (inactive) | CN(C[C@@H]1COCCO1)S(=O)(=O)Nc1ccc2ccc3ncc(-c4cnn(C)c4)cc3c(=O)c2c1 [MK-2461]
> 30 µM (inactive) | > 30 µM (inactive) | > 30 µM (inactive) | > 30 µM (inactive) | > 30 µM (inactive) | > 30 µM (inactive) | Cn1cc(-c2cnc3ccc4ccc(CS(=O)(=O)NCc5ccccn5)cc4c(=O)c3c2)cn1 [MK-8033]

Structure (SMILES) | Kd [1] | Kd [2] | Kd [3] | Kd [4] | Kd [5] | Kd [6]
COc1cc([C@@H]2c3cc4c(cc3[C@H](O)[C@H]3COC(=O)[C@@H]23)OCO4)cc(OC)c1OC [AXL-1717] | > 30 µM (inactive) | > 30 µM (inactive) | > 30 µM (inactive) | > 30 µM (inactive) | > 30 µM (inactive) | > 30 µM (inactive)
NC(=O)Nc1cc(-c2cccc(F)c2)sc1C(=O)N[C@H]1CCCNC1 [AZD-7762] | > 30 µM (inactive) | > 30 µM (inactive) | > 30 µM (inactive) | 1.22 µM (active) | > 30 µM (inactive) | > 30 µM (inactive)
O=C(Nc1nc2cccc(-c3ccc(CN4CCS(=O)(=O)CC4)cc3)n2n1)C1CC1 [FILGOTINIB] | > 30 µM (inactive) | > 30 µM (inactive) | > 30 µM (inactive) | > 30 µM (inactive) | > 30 µM (inactive) | > 30 µM (inactive)
